Measured values from ChEMBL document CHEMBL5678800 (Mol Cancer Ther, 2009).

Tests used:
[1] = Antitumor activity against mouse IGF-1R-Sal cells xenografted in nude mouse assessed as tumor growth inhibition at 3.1 to 12.5 mg/kg, po administered for 4 days relative to control; type: functional; details: dose 3.1-12.5 mg/kg, time 4 day
[2] = Toxicity in nude mouse xenografted with human GEO cells assessed as mortality at 25 mg/kg, po administered for 17 days relative to control; type: organism-based; details: in vivo, time 17 day
GEO [3] = test: Antitumor activity against human GEO cells xenografted in nude mouse assessed as tumor growth delay time at 6.25 mg/kg, po administered for 17 days relative to control; type: functional; details: time 17 day
GEO [4] = test: Antitumor activity against human GEO cells xenografted in nude mouse assessed as tumor growth inhibition at 12.5 mg/kg, po administered for 3 days in presence of cetuximab at 0.25 mg/kg relative to control; type: functional; details: 72 h, time 3 day, read-out: TGI
GEO [5] = test: Antitumor activity against human GEO cells xenografted in nude mouse assessed as tumor growth delay time at 12.5 mg/kg, po administered for 17 days relative to control; type: functional; details: time 17 day
[6] = Toxicity in nude mouse xenografted with human GEO cells assessed as body weight loss at 6.25 mg/kg, po administered for 3 days in presence of cetuximab at 0.125 mg/kg relative to control; type: organism-based; details: in vivo, 72 h, time 3 day
[7] = Toxicity in nude mouse xenografted with human GEO cells assessed as mortality at 25 mg/kg, po administered for 3 days in presence of cetuximab at 0.25 mg/kg relative to control; type: organism-based; details: in vivo, time 3 day
[8] = Plasma concentration in nude mouse xenografted with mouse IGF-1R-Sal cells po administered for 2 hrs by LC-MS/MS analysis
[9] = Toxicity in nude mouse xenografted with human GEO cells assessed as mortality at 6.25 mg/kg, po administered for 17 days relative to control; type: organism-based; details: in vivo, time 17 day
GEO [10] = test: Antitumor activity against human GEO cells xenografted in nude mouse assessed as tumor growth delay time at 25 mg/kg, po administered for 3 days in presence of cetuximab at 0.125 mg/kg relative to control; type: functional; details: time 3 day
[11] = Toxicity in nude mouse xenografted with human GEO cells assessed as body weight loss at 25 mg/kg, po administered for 3 days in presence of cetuximab at 0.25 mg/kg relative to control; type: organism-based; details: in vivo, 72 h, time 3 day
COLO 205 = test: Antitumor activity against human COLO 205 cells xenografted in nude mouse assessed as tumor growth inhibition at 50 mg/kg, po administered for 23 days relative to control; type: functional; details: COLO 205, 552 h, time 23 day, read-out: TGI
[12] = Plasma concentration in nude mouse xenografted with mouse IGF-1R-Sal cells at 12.5 mg/kg, po administered for 2 hrs by LC-MS/MS analysis; type: ADME, organism-based
[13] = Toxicity in nude mouse xenografted with human GEO cells assessed as mortality at 12.5 mg/kg, po administered for 3 days in presence of cetuximab at 0.25 mg/kg relative to control; type: organism-based; details: in vivo, time 3 day
GEO [14] = test: Antitumor activity against human GEO cells xenografted in nude mouse assessed as tumor growth inhibition at 6.25 mg/kg, po administered for 3 days in presence of cetuximab at 0.25 mg/kg relative to control; type: functional; details: 72 h, time 3 day, read-out: TGI
[15] = Toxicity in nude mouse xenografted with human GEO cells assessed as body weight loss at 25 mg/kg, po administered for 3 days in presence of cetuximab at 0.125 mg/kg relative to control; type: organism-based; details: in vivo, 72 h, time 3 day
[16] = Antitumor activity against mouse IGF-1R-Sal cells xenografted in nude mouse assessed as tumor growth inhibition at 6.25 to 150 mg/kg, po administered for 4 days relative to control; type: functional; details: dose 6.25-150 mg/kg, time 4 day
Rh41 [17] = test: Induction of cell cycle arrest in human Rh41 cells assessed as accumulation of cells at G2/M phase at 10x IC50 incubated for 24 hrs by propidium iodide staining based flow cytometry analysis relative to control; type: functional
Mus musculus = test: Anti-diabetic activity against nude mouse xenografted with mouse IGF-1R-Sal cells assessed as insulin level at 12.5 mg/kg, po administered for 2 hrs by ELISA analysis (Rvb= 0.39 +/- […]); type: functional
[18] = molecular target: High affinity nerve growth factor receptor (Rattus norvegicus, UniProt P35739); test: Inhibition of TrkA autophosphorylation in rat CD8-TrkA cells by Western blotting analysis; type: cell-based
GEO [19] = test: Antitumor activity against human GEO cells xenografted in nude mouse assessed as tumor growth delay time at 12.5 mg/kg, po administered for 3 days in presence of cetuximab at 0.125 mg/kg relative to control; type: functional; details: time 3 day
[20] = molecular target: T1, Protein kinase C zeta type (Homo sapiens, UniProt Q05513); test: Inhibition of recombinant PKCzeta (unknown origin) incubated for 60 mins in presence of ATP by electrophoretic caliper fluorescence analysis
T1 sequence (Q05513 whole entry): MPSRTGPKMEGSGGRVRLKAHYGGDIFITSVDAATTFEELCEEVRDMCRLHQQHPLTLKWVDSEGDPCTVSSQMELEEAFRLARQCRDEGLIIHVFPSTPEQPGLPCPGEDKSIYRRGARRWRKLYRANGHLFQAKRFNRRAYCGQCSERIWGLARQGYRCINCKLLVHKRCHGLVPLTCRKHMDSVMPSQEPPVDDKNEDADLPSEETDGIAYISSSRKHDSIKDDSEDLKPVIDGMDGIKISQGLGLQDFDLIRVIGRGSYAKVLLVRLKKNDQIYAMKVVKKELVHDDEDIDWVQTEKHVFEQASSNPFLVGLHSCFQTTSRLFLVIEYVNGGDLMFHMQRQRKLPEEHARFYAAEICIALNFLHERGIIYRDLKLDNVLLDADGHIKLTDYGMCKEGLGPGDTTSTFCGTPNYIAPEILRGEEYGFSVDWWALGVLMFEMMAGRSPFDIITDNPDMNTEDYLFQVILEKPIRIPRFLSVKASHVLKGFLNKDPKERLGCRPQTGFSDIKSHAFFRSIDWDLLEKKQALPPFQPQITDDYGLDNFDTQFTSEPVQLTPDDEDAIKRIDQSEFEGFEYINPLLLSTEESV

[21] = Toxicity in nude mouse xenografted with human GEO cells assessed as body weight loss at 12.5 mg/kg, po administered for 3 days in presence of cetuximab at 0.125 mg/kg relative to control; type: organism-based; details: in vivo, 72 h, time 3 day
GEO [22] = test: Antitumor activity against human GEO cells xenografted in nude mouse assessed as tumor growth inhibition at 6.25 mg/kg, po administered for 3 days in presence of cetuximab at 0.125 mg/kg relative to control; type: functional; details: 72 h, time 3 day, read-out: TGI
[23] = Toxicity in nude mouse xenografted with human GEO cells assessed as body weight loss at 12.5 mg/kg, po administered for 17 days; type: organism-based; details: in vivo, 408 h, time 17 day
Rh41 [24] = test: Antitumor activity against human Rh41 cells xenografted in nude mouse assessed as tumor growth inhibition at 12 to 50 mg/kg, po administered for 21 days relative to control; type: functional; details: dose 12-50 mg/kg, time 21 day
[25] = Toxicity in nude mouse xenografted with human GEO cells assessed as mortality at 6.25 mg/kg, po administered for 3 days in presence of cetuximab at 0.25 mg/kg relative to control; type: organism-based; details: in vivo, time 3 day

Chain of High affinity nerve growth factor receptor (P35739 whole entry): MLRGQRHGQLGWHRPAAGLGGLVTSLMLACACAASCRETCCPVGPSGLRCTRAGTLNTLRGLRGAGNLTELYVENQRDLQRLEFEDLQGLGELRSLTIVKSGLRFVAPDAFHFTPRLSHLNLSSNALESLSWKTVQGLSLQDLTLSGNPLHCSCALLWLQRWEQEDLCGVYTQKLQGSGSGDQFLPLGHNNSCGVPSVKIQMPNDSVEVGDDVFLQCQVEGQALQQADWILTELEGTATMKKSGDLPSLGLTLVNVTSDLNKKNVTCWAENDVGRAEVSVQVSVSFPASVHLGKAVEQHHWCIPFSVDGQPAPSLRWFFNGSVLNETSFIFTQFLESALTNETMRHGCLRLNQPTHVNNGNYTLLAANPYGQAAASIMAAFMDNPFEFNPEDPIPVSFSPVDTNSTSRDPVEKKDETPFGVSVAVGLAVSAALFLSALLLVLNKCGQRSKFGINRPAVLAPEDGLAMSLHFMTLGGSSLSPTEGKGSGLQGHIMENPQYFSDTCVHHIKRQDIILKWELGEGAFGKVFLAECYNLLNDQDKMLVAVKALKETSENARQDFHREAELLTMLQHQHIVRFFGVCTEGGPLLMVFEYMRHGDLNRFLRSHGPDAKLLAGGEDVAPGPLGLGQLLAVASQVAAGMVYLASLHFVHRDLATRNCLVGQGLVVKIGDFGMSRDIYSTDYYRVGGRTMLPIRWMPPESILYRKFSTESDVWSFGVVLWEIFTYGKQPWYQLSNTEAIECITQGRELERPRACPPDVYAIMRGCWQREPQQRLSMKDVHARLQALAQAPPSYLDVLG

Molecule `C[C@@]1(C(=O)Nc2ccc(F)nc2)CCCN1c1nc(Nc2cc(C3CC3)n[nH]2)c2cccn2n1` [BMS-754807] has a TGI [1] of 80%, a mortality at 408 h [2] of 0% and a Time (GEO [3]) of 3 days. It also gave an inhibition in vivo at 12.5 mg/kg (GEO [4]) of 88%, a Time (GEO [5]) of 4 days and an Activity [6] of 1.2 g. It also gave a mortality at 72 h [7] of 0%, a concentration at 2 h [8] of 94 nM and a mortality at 408 h [9] of 0%. For the same molecule, the Time (GEO [10]) was 21 days, the Activity [11] was 1.5 g and the inhibition in vivo at 50 mg/kg (COLO 205) was 53%. It also gave a concentration at 2 h [12] of 29 nM, a mortality at 72 h [13] of 0% and an inhibition in vivo at 6.25 mg/kg (GEO [14]) of 86%. The Activity [15] was 0.6 g, the TGI [16] was 67% and the Activity (Rh41 [17]) was 2.8%. It also gave an Activity (Mus musculus) of 5.1 ng/mL, an IC50 [18] of 1020 nM and a Time (GEO [19]) of 30 days. The IC50 [20] was > 50000 nM, the Activity [21] was 0.4 g and the inhibition in vivo at 6.25 mg/kg (GEO [22]) was 79%. The Activity [23] was -0.8 g, the TGI (Rh41 [24]) was 45% and the mortality at 72 h [25] was 0%.
